ChEMBL document CHEMBL1145940, “Computer modeling of selective regions in the active site of nitric oxide synthases: implication for the design of isoform-selective inhibitors” (J Med Chem, 2003)
Peptide text beside a SMILES is read from it.

How the values were obtained:
[1] = Inhibitory activity against endothelial nitric oxide synthase (eNOS)
[2] = Inhibitory activity against Inducible nitric oxide synthase
[3] = Inhibitory activity against neuronal nitric oxide synthase
[4] = Selectivity for neuronal over endothelial nitric oxide synthase

NC[C@H](NC(=O)[C@@H](N)CCC/N=C(\N)N[N+](=O)[O-])C(N)=O (HELM PEPTIDE1{[N=C(NCCC[C@H](N)C(=O)[*:2])N[N+](=O)[O-]].[NC[C@H](N[*:1])C(=O)[*:2]].[am]}$$$$V2.0)
Ki [1]: 200 µM
Ki [2]: 25 µM
Ki [3]: 310 nM

NCc1ccccc1NC[C@@H](N)CCC/N=C(\N)N[N+](=O)[O-]
Ki [1]: 39.8 µM
Ki [2]: 29.3 µM
Ki [3]: 5550 nM
Selectivity [4]: 7.17

N/C(=N\CCC[C@@H](NC(=O)[C@H](N)Cc1ccccc1)C(=O)O)N[N+](=O)[O-] (HELM PEPTIDE1{[dF].[N=C(NCCC[C@@H](N[*:1])C(=O)O)N[N+](=O)[O-]]}$$$$V2.0)
Ki [1]: 90 µM
Ki [2]: 13600 µM
Ki [3]: 17000 nM
Selectivity [4]: 5.3

CCCCC[C@H]1NC(=N)C[C@H]1C
Ki [1]: 226 µM
Ki [2]: 0.25 µM
Ki [3]: 3200 nM

COC(=O)[C@@H](CCCNC(=N)N[N+](=O)[O-])NC(=O)[C@H](N)Cc1ccccc1 (HELM PEPTIDE1{[dF].[N=C(NCCC[C@@H](N[*:1])C(=O)[*:2])N[N+](=O)[O-]].[CO[*:1]]}$$$$V2.0)
Ki [1]: 5 µM
Ki [2]: 3600 µM
Ki [3]: 2000 nM
Selectivity [4]: 2.5

COC(=O)[C@@H](CCC/N=C(\N)N[N+](=O)[O-])NC(=O)[C@@H](N)Cc1ccccc1 (HELM PEPTIDE1{F.[N=C(NCCC[C@@H](N[*:1])C(=O)[*:2])N[N+](=O)[O-]].[CO[*:1]]}$$$$V2.0)
Ki [1]: 150 µM
Ki [2]: 7500 µM
Ki [3]: 90000 nM
Selectivity [4]: 1.7

Cc1c(C)c2c(c(C)c1O)CC[C@@](C)(C(=O)C1CCC(c3ccc(NC(=N)c4cccs4)cc3)CC1)O2 (stereo partly drawn)
Ki [1]: 110 µM
Ki [2]: > 300 µM

NCCCNC[C@@H](N)CCC/N=C(\N)N[N+](=O)[O-]
Ki [1]: 411 µM
Ki [2]: 123 µM

NCCCC[C@H](N)C(=O)N[C@H](CCC/N=C(\N)N[N+](=O)[O-])C(N)=O (HELM PEPTIDE1{K.[N=C(NCCC[C@@H](N[*:1])C(=O)[*:2])N[N+](=O)[O-]].[am]}$$$$V2.0)
Ki [1]: 229 µM
Ki [2]: 4700 µM
Ki [3]: 1700 nM

NC(=O)[C@H](N)NC(=O)[C@@H](N)CCC/N=C(/N)N[N+](=O)[O-]
Ki [1]: 261 µM
Ki [2]: 61 µM
Ki [3]: 1100 nM
Selectivity [4]: 237

NC(=O)[C@@H](CCC/N=C(/N)N[N+](=O)[O-])NC(=O)[C@H](N)Cc1ccccc1
Ki [1]: 90 µM
Ki [3]: 17000 nM
Selectivity [4]: 5.3

[H]/N=C(/NCCC[C@H](N)C(=O)N[C@H]1CNC(C(N)=O)C1)N[N+](=O)[O-] (stereo partly drawn)
Ki [2]: 29.5 µM
Ki [3]: 74 nM

NCNC[C@@H](N)CCC/N=C(/N)N[N+](=O)[O-]
Ki [1]: 314 µM
Ki [2]: 39 µM
Ki [3]: 120 nM
Selectivity [4]: 2580

N=C(NCCC[C@H](N)C(=O)N[C@@H]1CN[C@@H](C(N)=O)C1)N[N+](=O)[O-]
Ki [1]: 110 µM
Ki [2]: 200 µM

NCCCC[C@@H](N)C(=O)N[C@H](CCC/N=C(/N)N[N+](=O)[O-])C(N)=O (HELM PEPTIDE1{[dK].[N=C(NCCC[C@@H](N[*:1])C(=O)[*:2])N[N+](=O)[O-]].[am]}$$$$V2.0)
Ki [1]: 30 µM
Ki [2]: 910 µM
Ki [3]: 890 nM

N/C(=N/CCC[C@H](N)CNc1cccnc1)N[N+](=O)[O-]
Ki [1]: 523 µM
Ki [2]: 141 µM
Ki [3]: 550 nM
Selectivity [4]: 951

N/C(=N\CCC[C@H](N)CNCc1cccnc1)N[N+](=O)[O-]
Ki [1]: 193 µM
Ki [2]: 395 µM
Ki [3]: 760 nM
Selectivity [4]: 254

NCc1ccc(NC[C@@H](N)CCC/N=C(\N)N[N+](=O)[O-])cc1
Ki [1]: 409 µM
Ki [2]: 335 µM
Ki [3]: 1370 nM
Selectivity [4]: 299

NCCc1ccc(NC[C@@H](N)CCC/N=C(\N)N[N+](=O)[O-])cc1
Ki [3]: 1660 nM

NCc1cccc(NC[C@@H](N)CCC/N=C(\N)N[N+](=O)[O-])c1
Ki [1]: 194 µM
Ki [2]: 80 µM
Ki [3]: 210 nM
